A word on the GI50: it is the concentration that inhibits growth by half.

This note sets out measurements from ChEMBL document CHEMBL1201862, “PubChem BioAssay data set” (2004).

Test in all cases: DTP human tumour cell line panel, 48 h
Assay [1] deals with DLD-1.
In assay [2] the test system is DMS-114.
For assay [3], the system named is DMS-273.
The subject of assay [4] is HOP-18.
In assay [5] the test system is KM-20L2.
The test system of assay [6] is LXFL 529.
In assay [7] the test system is M19-MEL.
The subject of assay [8] is RXF 631.
Assay [9] relates to XF498.

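Values below derive from 48-hour exposures of cells grown in 96-well plates, with endpoints linearly interpolated between the two concentrations bracketing the appropriate inhibition level. Abbreviation: GI50, concentration required for 50% inhibition of growth.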 The source made the active and inactive calls. No stated cut-off is given here; in the data, active = GI50 up to about 1.1 µM and inactive = higher. Some results are limits rather than exact numbers.

Turning to `c1cc(-c2cn3ccsc3n2)ccn1`, the GI50 is > 100 µM (inactive) in assay [1]; > 66.5 µM (inactive) in assay [2]; 32.7 µM (inactive) in assay [3]; > 100 µM (inactive) in assay [4]; > 31.6 µM (inactive) in [5]; > 100 µM (inactive) in assay [6]. The values for the GI50 in [7], in assay [8] and in [9] were > 60.5 µM (inactive), > 100 µM (inactive) and > 100 µM (inactive), respectively.
For the compound `O=C1c2ccccc2C(=O)c2c(/C=C\N3CCCCC3)ccnc21`, the GI50 in assay [1] is 1.39 µM (inactive); in assay [2] it was 0.813 µM (active); in assay [3] it was 2.3 µM (inactive); in assay [4], 1.25 µM (inactive); in [5], 15.5 µM (inactive); in assay [6], 0.377 µM (active). Further, the GI50 in [7] is 0.237 µM (active); in assay [8], 8.22 µM (inactive); in assay [9], 11.1 µM (inactive).
Consider `CS(=O)(=O)ON1C(=O)c2ccc(N)cc2C1=O`, for which the GI50 was > 65.8 µM (inactive) in assay [1]; > 74.5 µM (inactive) in assay [2]; > 100 µM (inactive) in [3]; > 100 µM (inactive) in assay [4]; > 100 µM (inactive) in [5]; > 78.5 µM (inactive) in assay [6]. In addition, the figures for the GI50 in assay [7], in assay [8] and in assay [9] were > 59.8 µM (inactive), > 100 µM (inactive) and > 79.1 µM (inactive), respectively.
For the compound `Cc1oc2c(C)c3oc(=O)cc(C)c3cc2c1CNC(=O)[C@@H]1OCCOCCOCCOCCOCCOC1C(=O)O` (stereo partly drawn), the GI50 was > 100 µM (inactive) in [1]; > 100 µM (inactive) in assay [2]; > 100 µM (inactive) in assay [3]; > 100 µM (inactive) in assay [4]; > 100 µM (inactive) in assay [5]; 8.15 µM (inactive) in assay [6]. The results for the GI50 in assay [7], in [8] and in assay [9] were > 100 µM (inactive), 36.1 µM (inactive) and > 10 µM (inactive), respectively.
Take `NC(=O)c1nnn(Cc2cc(Cl)c(C(=O)c3ccc(Cl)cc3)c(Cl)c2)c1N` [CARBOXYAMIDOTRIAZOLE]: the GI50 in assay [1] was > 9.1 µM (inactive); in [2], 6.1 µM (inactive); in assay [3] it was > 9.1 µM (inactive); in assay [4] it was > 9.1 µM (inactive); in assay [5] it was > 9.1 µM (inactive); in assay [6], > 9.1 µM (inactive). For the same compound, the GI50 is > 9.1 µM (inactive) in [7], 11.7 µM (inactive) in assay [8] and > 9.1 µM (inactive) in assay [9].
For the compound `O=C(N/C=C/C=C/Sc1ccccc1)OCc1ccccc1`, the GI50 in assay [1] is 14.1 µM (inactive); in [2] it was 16.6 µM (inactive); in assay [3] it was 16.6 µM (inactive); in assay [4], 28.1 µM (inactive); in [5], 17.2 µM (inactive); in assay [6], 17.1 µM (inactive). For the same compound, the GI50 was 17.2 µM (inactive) in assay [7], 19.1 µM (inactive) in assay [8] and 20.4 µM (inactive) in [9].
With `c1ccc2c3c([nH]c2c1)[C@H]1C2CCCCN2CN1CC3` (stereo partly drawn), the GI50 in assay [1] was > 100 µM (inactive); in assay [2] it was 47.8 µM (inactive); in assay [3] it was > 100 µM (inactive); in assay [4], > 100 µM (inactive); in assay [5] it was > 100 µM (inactive); in [6], > 100 µM (inactive). Moreover, the GI50 in [7], in assay [8] and in assay [9] was > 100 µM (inactive) throughout.
